Structures can show the parent of a compound that is named as a salt.
Columns and labels:
[1] = tested on: HIV; details: CD4+ cells, Fields, et al., Nature, Vol. 333, 19 May 1988, cited from earlier work
[2] = tested on: Moloney murine leukemia virus (MoLV); assay: in vitro XC plaque assay (SC-1 cells infected with MoLV, XC cell overlay, plaques counted); assay type: cell-based; details: compound added 2 hours before virus; for Mean No. of Foci: control 84 foci
Method: This assay was performed according to the method of Rowe et al. (Virology, 1970,42, 1136-39) as previously described by L. Hsu, et al. (J. Virological Methods, 1980, 1, 167-77) and T. L. Bowlin and M. R. Proffitt (J. Interferon Res., 1983, 3(1), 19-31). Mouse SC-1 cells (fibroblast) (10⁵) were seeded into each well of 6-well cluster plates (Costar #3506) in 4 ml Minimum Essential Medium (MEM) with 10% Fetal Calf Serum (FCS). Following an 18 hour incubation period (37°C), Moloney murine leukemia virus (MoLV) was applied at a predetermined titer to give optimal (i.e. countable) numbers of virus plaques. Compounds were added 2 hours prior to addition of the virus. Three days later the culture medium was removed, the SC-1 cell monolayers were exposed to UV irradiation (1800 ergs), and rat XC cells (10⁶) were seeded into each well in 4 ml MEM. Following an additional 3 day incubation (37°C), these cells were fixed with ethyl alcohol (95%) and stained with 0.3% crystal violet. Plaques were then counted under low magnification.

[3] = tested on: RF strain of HIV-1; assay: p24 antigen expression from HIV infected T-lymphocytes (C8166 T cell line); assay type: cell-based; details: C8166 cells; for p24 Antigen: 3 h pretreatment, culture fluid after 3 days
Method: Cells (C8166 T cell line) were pretreated with test compounds at appropriate concentrations for 3 hours prior to virus (RF strain of HIV-1) absorption. Low multiplicity of infection was used and virus absorption period was 1 hour at room temperature. the cells were washed X1 in PBS and resuspended in fresh medium containing the appropriate concentrations of test compound. Cells incubated at 37°C and after 3 days culture fluid was assayed for p24 antigen as a measure of viral replication. Because these compounds were insoluble in water as their free base, they had to be taken up in DMSO and therefore a series of DMSO virus controls were needed for comparison.

For CC1CNCCN1S(=O)(=O)c1cccc2cnccc12 (stereo not shown) [1,5-isoquinolinesulphonyl-2-methylpiperazine dihydrochloride], the “HIV cell surface binding” value [1] is listed as “does not interfere with HIV cell surface binding” and the viral infectivity ([1]; accumulation of virus particles at the cell surface) is listed as “inhibition of viral infectivity”.

With CCCc1[nH]c(=O)oc1-c1ccnc2ccccc12 [Test Compound, 4-propyl-5-(4-quinolinyl)-2(3H)-oxazolone] the “Mean No. of Foci” value ([2]; 0.10 µg/ml) was 84, the “Mean No. of Foci” value ([2]; 1 µg/ml) was 10 and the inhibition at 0.1 µg/mL ([2]; Murine leukemia virus, SC-1, 0.10 µg/ml) was 0%. The inhibition at 1 µg/mL ([2]; Murine leukemia virus, SC-1, 1 µg/ml) was 88.1%, the “p24 Antigen” value ([3]; 1 µg/ml, vehicle DMSO 0.01%, DMSO control 1027 pg/ml) was 745 pg/mL and the “p24 Antigen” value ([3]; 10 µg/ml, vehicle DMSO 0.1%, DMSO control 2408 pg/ml) was 710 pg/mL. The inhibition at 1 µg/mL ([3]; Human immunodeficiency virus 1, 72 h, 1 µg/ml, vehicle DMSO 0.01%, 3 days) was 28% and the inhibition at 10 µg/mL ([3]; Human immunodeficiency virus 1, 72 h, 10 µg/ml, vehicle DMSO 0.1%, 3 days) was 71%.
